Assay results taken from PubChem BioAssay (NCI).
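The compound was tested at five concentrations on cells cultured in 96-well plates, with a 48-hour exposure period. TGI is the concentration that stops growth completely.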

Experiments:
Assay in all cases: inhibition of tumour cell growth, NCI panel, 48 h
[1] = tested on: BT-549 breast
[2] = tested on: RXF 393 renal
[3] = tested on: MDA-N
[4] = tested on: NCI-H23 lung
[5] = tested on: PC-3 prostate
[6] = tested on: KM12 colon
[7] = tested on: HOP-92 NSCLC
[8] = tested on: SR leukemia
[9] = tested on: OVCAR-5 ovarian
[10] = tested on: T-47D breast
[11] = tested on: MALME-3M melanoma
[12] = tested on: OVCAR-3 ovarian
[13] = tested on: M14 melanoma
[14] = tested on: CCRF-CEM leukemia

| SMILES | TGI [1] | TGI [2] | TGI [3] | TGI [4] | TGI [5] | TGI [6] | TGI [7] | TGI [8] | TGI [9] | TGI [10] | TGI [11] | TGI [12] | TGI [13] | TGI [14] |
| --- | --- | --- | --- | --- | --- | --- | --- | --- | --- | --- | --- | --- | --- | --- |
| COc1ccc(N=Nc2c(N)nn3c(SC)c(C#N)c(N)nc23)cc1 | 49.6 µM | 19.5 µM | 26.7 µM | 21.1 µM | 21.5 µM | 30.2 µM | 27.6 µM | 4.59 µM | 34.8 µM | 4.3 µM | 31.7 µM | 7.1 µM | 25.1 µM | 4.84 µM |
| COC(=O)C(=O)C(C(=O)C(=O)Nc1ccc(C)c(C)c1)c1nc2ccc([N+](=O)[O-])cc2[nH]c1=O (configuration not stated) | > 100 µM | > 100 µM | > 100 µM | > 100 µM | > 100 µM | > 100 µM | > 100 µM | > 100 µM | > 100 µM | > 100 µM | > 100 µM | > 100 µM | > 100 µM | > 100 µM |
| Oc1ccc(SCc2cc(O)ccc2O)cc1 | 16.5 µM | 25.5 µM | 28.6 µM | > 100 µM | > 52.7 µM | 46.9 µM | > 47.2 µM | > 100 µM | 49.5 µM | 30.5 µM | 36.2 µM | 22.4 µM | 33.7 µM | > 100 µM |
| O=C1C=C/C(=C/[C@H]2SSC=C[C@]23C=CC(=O)C3)C1 | 46.8 µM | 29.9 µM | 51.3 µM | 44.1 µM | > 84.9 µM | 46.6 µM | 61.5 µM | > 100 µM | 28.4 µM | > 100 µM | 41.5 µM | 85.6 µM | > 54.7 µM | 9.27 µM |
| Cc1cc(=O)n2nc(CSc3nnc(Sc4cc(O)ccc4O)s3)sc2n1 | > 100 µM | > 100 µM | 32.8 µM | > 100 µM | > 100 µM | > 100 µM | > 100 µM | > 100 µM | > 100 µM | 73.6 µM | > 100 µM | > 100 µM | > 100 µM | 48.6 µM |
| C#CCOC(=O)C(=[N+]=[N-])C(=O)CC(C)C | > 10 µM | > 10 µM | > 10 µM | > 10 µM | > 10 µM | > 10 µM | > 10 µM | > 10 µM | > 10 µM | > 10 µM | > 10 µM | > 10 µM | > 10 µM | > 10 µM |
| COc1cc2c(cc1OC)C(=O)/C(=C/c1ccc(N(C)C)cc1)CC2 | > 10 µM | > 10 µM | > 10 µM | > 10 µM | > 10 µM | > 10 µM | > 10 µM | > 10 µM | > 10 µM | > 10 µM | > 10 µM | > 10 µM | > 10 µM | > 10 µM |
| CC(=O)O[C@H]1C(=O)[C@@]2(C)[C@H]([C@H](OC(=O)c3ccco3)[C@]3(O)C[C@H](OC(=O)[C@H](O)[C@@H](NC(=O)c4ccccc4)c4ccccc4)C(C)=C1C3(C)C)[C@]1(OC(C)=O)CO[C@@H]1C[C@@H]2O | > 25 µM | 3.76 µM | 0.0602 µM | > 25 µM | > 23.5 µM | > 25 µM | > 25 µM | > 7.67 µM | > 25 µM | > 25 µM | > 25 µM | 0.225 µM | > 25 µM | 0.837 µM |
